Test [1] deals with MCF-10A (Non-Tumorigenic Cells). Put plainly: MTT cytotoxicity on non-tumorigenic MCF-10A cells. It counts as cell-based. Conditions: Homo sapiens, 72 h of exposure, mean ± S.D. of three observations. As to the method: MTT (3-[4,5-dimethylthiazol-2-yl]-2,5 diphenyltetrazolium bromide) assay was used to study the anticancer activity of all derivatives against breast cancer cells MCF-7and MDAMB231 (obtained from ATCC, Manassas, VA, USA). […] Briefly, cells plated onto 96-well plates (5000 cells/well) were allowed to adhere and form a semi-confluent monolayer. […] After the exposure, cytotoxicity was assessed following the MTT Assay Kit protocol (Abcam, Cambridge, UK) as reported earlier.
The selectivity ratio in non-cancerous cells (MCF10A) versus cancer cells (MCF-7 and MDAmb231) was calculated as reported in [26, 27] using the following equation: SI = IC50 of normal cells/IC50 of cancer cells.

In the next test the target is T1, FGFR-1 (Homo sapiens, UniProt P11362).
T1 construct: host or cells: MDA-MB-231
Put plainly: FGFR-1 inhibitory activity (FGFR-1 ELISA Kit, MDA-MB-231 cell lysates). It counts as biochemical. As to the method: To determine basal FGFR-1 activity, a FGFR-1 ELISA Kit was used according to the protocol of the manufacturer (G-Biosciences, Saint Louis, MO, USA). […] After 90 min of incubation at 37 °C, 100 μL Biotinylated Detection Antibody was added and incubated for 60 min. After washing twice each with washing buffer, 100 μL ELISA Detection Reagent was added to each well and incubated for 30 min. After washing, 90 μL of Detection Substrate (TMB) was added to visualize the enzymatic reaction. TMB was catalyzed to produce a blue color that changed into yellow after adding 50 μL of acidic stop solution. The density of yellow is directly proportional to the concentration of FGFR-1 captured on the plate using a Varioskan TM LUX multimode microplate reader (Thermo Scientific, Waltham, MA, USA).
In general terms: ELISA stands for enzyme-linked immunosorbent assay.

In another test the test system is MDA-MB-231. Briefly: MTT anti-proliferative assay, MDA-MB-231. It is filed as cell-based, human. Conditions: for IC50: Homo sapiens, MDA-MB-231, 72 h of exposure, MTT, mean ± S.D. of three observations; for selectivity index (SI) MDA-MB231: IC50 MCF 10A/IC50 MDA-MB231, 72 h of exposure. As for the experimental part:
(§1) The cytotoxic effect of the synthesized compounds was estimated against human breast cancer cell lines (MCF-7 and MDA-MB231).
(§2) MTT (3-[4,5-dimethylthiazol-2-yl]-2,5 diphenyltetrazolium bromide) assay was used to study the anticancer activity of all derivatives against breast cancer cells MCF-7and MDAMB231 (obtained from ATCC, Manassas, VA, USA). […] Briefly, cells plated onto 96-well plates (5000 cells/well) were allowed to adhere and form a semi-confluent monolayer. After 24 h, the cells were treated with different concentrations of derivatives (0–100 µM) for 72 h. After the exposure, cytotoxicity was assessed following the MTT Assay Kit protocol (Abcam, Cambridge, UK) as reported earlier.
In general terms: Formazan colour is commonly taken as a measure of viable cells.

A further test relates to MCF-7. Put plainly: MTT anti-proliferative assay, MCF-7. It counts as cell-based, human. Particulars: for IC50: 72 h of exposure, MTT, mean ± S.D. of three observations; for selectivity index (SI) MCF-7: IC50 MCF 10A/IC50 MCF-7, 72 h of exposure. As to the method: as §1, §2
In another test the test system is Caspase-3. Put plainly: Caspase-3 colorimetric activity assay (Ac-DEVD-pNA) in MDA-MB-231 cells. It counts as cell-based, human. Conditions: predetermined IC50 of compound, 24 h. As for the experimental part:
To further explore the cytotoxicity of the prepared hybrids, their influence on Caspase-3 activity was examined. MDA-MB-231 cells were incubated with the predetermined IC50s of tested compounds for a duration of 24 h.
Caspase-3 activity was assessed with a colorimetric assay based on the hydrolysis of acetyl–Asp–Glu–Val–Asp p-nitroanilide (Ac-DEVD-pNA) by Caspase-3 and releasing p-nitroaniline (pNA). MDA-MB-231 cell lysates (100 ng/mL) were diluted and subjected to analysis via Caspase-3 Colorimetric Assay Kit (Sigma-Aldrich, Saint Louis, MO, USA) based on the protocol of the manufacturer. The reaction for color development was held at 37 °C for 2 h, and the value of OD405 was determined using a Varioskan TM LUX multimode microplate reader (Thermo Scientific, Waltham, MA, USA). Each caspase-3 activity was expressed as a value of OD405.

The test system of another test is MDA-MB-231 cells. Briefly: Annexin V-FITC/PI flow cytometric apoptosis analysis. It counts as cell-based, human. Conditions: MDA-MB-231, Annexin V-FITC/PI, predetermined IC50. As to the method:
Apoptosis and necrosis are two routes that make up the overall division of the cell death pathway carried out by anticancer agents. A double labeling flow cytometry assay using Annexin V-FITC/propidium iodide was performed to identify which mechanism, necrosis, or apoptosis is responsible for cell death.
Apoptosis was detected after 48 h of cell culture using V-FITC apoptosis detection kit (BD Pharmingen TM, Franklin Lakes, NJ, USA). […] After treatment, cells were collected, washed with ice-cold PBS and centrifuged at 200× g for 5 min. The cell pellet was suspended in 200 μL of annexin V-FITC/PI solution for 15 min in the dark. The stained and Annexine V propidium iodide negative cells were evaluated via CytoFLEX flow cytometry (Beckman Coulter, Brea, CA, USA). Ten thousand cells (gated events) were captured for each sample. The mean fluorescence intensity was analyzed with Cytoexpert (Beckman Coulter).

The structures appear in SMILES notation.

T1 sequence (P11362 22-822): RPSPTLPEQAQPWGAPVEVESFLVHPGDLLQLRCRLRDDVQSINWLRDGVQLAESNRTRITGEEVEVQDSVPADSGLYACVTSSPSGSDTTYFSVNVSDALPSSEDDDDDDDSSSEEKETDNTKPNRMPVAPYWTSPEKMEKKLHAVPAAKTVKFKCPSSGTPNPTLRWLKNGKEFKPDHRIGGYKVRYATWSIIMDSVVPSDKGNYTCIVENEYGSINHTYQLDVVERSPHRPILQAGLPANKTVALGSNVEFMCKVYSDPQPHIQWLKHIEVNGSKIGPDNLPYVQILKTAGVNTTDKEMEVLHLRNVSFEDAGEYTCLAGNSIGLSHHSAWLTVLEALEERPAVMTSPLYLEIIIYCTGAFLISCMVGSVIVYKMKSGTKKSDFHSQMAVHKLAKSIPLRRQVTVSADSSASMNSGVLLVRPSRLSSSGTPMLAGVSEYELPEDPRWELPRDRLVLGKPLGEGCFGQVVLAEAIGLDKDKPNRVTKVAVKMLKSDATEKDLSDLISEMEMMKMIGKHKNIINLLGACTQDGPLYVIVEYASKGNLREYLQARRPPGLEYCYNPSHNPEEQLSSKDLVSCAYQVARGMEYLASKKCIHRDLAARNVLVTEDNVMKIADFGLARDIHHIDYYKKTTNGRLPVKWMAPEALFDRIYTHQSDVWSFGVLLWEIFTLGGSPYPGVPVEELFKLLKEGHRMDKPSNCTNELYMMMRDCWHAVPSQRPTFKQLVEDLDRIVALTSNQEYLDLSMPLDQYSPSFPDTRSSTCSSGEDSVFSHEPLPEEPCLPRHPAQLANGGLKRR

Regarding `N=C(N)NS(=O)(=O)c1ccc(Nc2ncnc3sc4c(c23)CCCC4)cc1` [Compound 4ai, N-carbamimidoyl-4-((5,6,7,8-tetrahydrobenzo[4,5]thieno[2,3-d]pyrimidin-4-yl)amino) benzenesulfonamide], the IC50 (as a rule, the point on the concentration scale where inhibition reaches its midpoint) is 458 ± 12.3 µM in test [1]; 132 ± 4.3 µM against FGFR-1; 40.2 ± 2.7 µM in the test on MDA-MB-231; 35.8 ± 1.2 µM with MCF-7 (Homo sapiens, MCF7, 72 h). Also, in the test with MDA-MB-231, the “selectivity index (SI) MDA-MB231” value was 11.40. In the test with MCF-7, the “selectivity index (SI) MCF-7” value was found to be 12.79.

On to `O=S(=O)(Nc1ncccn1)c1ccc(Nc2ncnc3sc4c(c23)CCCC4)cc1` [Compound 4aii, N-(pyrimidin-2-yl)-4-((5,6,7,8-tetrahydrobenzo[4,5]thieno[2,3-d]pyrimidin-4-yl)amino)benzenesulfonamide], for which the IC50 is more than 1000 µM in test [1]; 119 ± 5.6 µM at FGFR-1; 20.2 ± 1.5 µM with MDA-MB-231; 22.3 ± 3.1 µM in the test on MCF-7 (Homo sapiens, MCF7, 72 h).

`CCOC(=O)c1sc2ncnc(Nc3ccc(S(=O)(=O)Nc4ncccn4)cc3)c2c1C` [Compound 4bii, Ethyl-5-methyl-4-((4-(N-(pyrimidin-2-yl)sulfamoyl)phenyl)amino)thieno[2,3-d]pyrimidine-6-carboxylate]: the IC50 in test [1] was 230 ± 24.1 µM; against FGFR-1, 289 ± 12 µM; in the test on MDA-MB-231, 15.57 ± 0.1 µM; in the test on MCF-7 (Homo sapiens, MCF7, 72 h), 14 ± 8.2 µM. For the same compound, in the test with MDA-MB-231, the “selectivity index (SI) MDA-MB231” value amounted to 14.77. Moreover, the “selectivity index (SI) MCF-7” value with MCF-7 was 16.45.

On to `CCOC(=O)c1sc2ncnc(Cl)c2c1C` [Compound 3b], for which the half-inhibitory concentration (IC50) was 265 ± 4.2 µM in test [1]; 179 ± 5.6 µM at FGFR-1; 4.45 ± 0.31 µM in the test with MDA-MB-231; 9.74 ± 0.13 µM with MCF-7; less than 10 µM in the test on MCF-7 (Homo sapiens, MCF7, 72 h). Besides, in the test on Caspase-3, the “Caspase-3 activity fold change vs control cells” value amounted to 2.3 fold. Moreover, the “selectivity index (SI) MDA-MB231” value in the test with MDA-MB-231 amounted to 59.45. Moreover, in the test on MDA-MB-231 cells, the “increase of population of late apoptotic cells” value is reported as 4.8 fold. The “increase of population of necrotic cells” value in the test with MDA-MB-231 cells worked out at 5.5 fold. Also, in the test on MCF-7, the “selectivity index (SI) MCF-7” value worked out at 27.20.

Turning to `COc1cccc2c1C(=O)c1c(O)c3c(c(O)c1C2=O)C[C@@](O)(C(=O)CO)C[C@@H]3O[C@H]1C[C@H](N)[C@H](O)[C@H](C)O1` [Doxorubicin, reference compound], the IC50 is 2.2 ± 0.3 µM in the test with MDA-MB-231 and 1.6 ± 2.2 µM in the test on MCF-7 (Homo sapiens, MCF7, 72 h).

Take `CCOC(=O)c1sc2ncnc(Nc3ccc(S(=O)(=O)NC(=N)N)cc3)c2c1C` [Compound 4bi, Ethyl-4-((4-(N-carbamimidoylsulfamoyl)phenyl)amino)-5-methylthieno[2,3-d]pyrimidine-6-carboxylate]: the half-inhibitory concentration (IC50) in test [1] is 277 ± 7.9 µM; against FGFR-1, 326 ± 7.4 µM; in the test on MDA-MB-231, 8.68 ± 4.3 µM; in the test on MCF-7, 6.17 ± 1.3 µM; in the test on MCF-7 (Homo sapiens, MCF7, 72 h), less than 10 µM. The “selectivity index (SI) MDA-MB231” value in the test with MDA-MB-231 was determined as 31.90. The “selectivity index (SI) MCF-7” value in the test on MCF-7 is listed as 44.86.

With `CCOC(=O)c1sc2ncnc(Nc3ccc(S(=O)(=O)Nc4cc(C)on4)cc3)c2c1C` [Compound 4biii, Ethyl-5-methyl-4-((4-(N-(5-methylisoxazol-3-yl)sulfamoyl)phenyl)amino) thieno[2,3-d]pyrimidine-6-carboxylate], the IC50 in test [1] was 244.5 ± 1.9 µM; on FGFR-1, 168 ± 8.3 µM; with MDA-MB-231 it was 17.6 ± 2.3 µM; in the test on MCF-7 it was 9.54 ± 3.1 µM; with MCF-7 (Homo sapiens, MCF7, 72 h), less than 10 µM. Moreover, the “selectivity index (SI) MDA-MB231” value with MDA-MB-231 is given as 13.86. The “selectivity index (SI) MCF-7” value in the test with MCF-7 is reported as 25.62.

As for `Cc1cc(NS(=O)(=O)c2ccc(Nc3ncnc4sc5c(c34)CCCC5)cc2)no1` [Compound 4aiii, N-(5-methylisoxazol-3-yl)-4-((5,6,7,8-tetrahydrobenzo[4,5]thieno[2,3-d]pyrimidin-4-yl)amino)benzenesulfonamide], the IC50 came to 88.5 ± 10.1 µM in test [1]; 159 ± 5.3 µM against FGFR-1; 68.3 ± 4.6 µM in the test with MDA-MB-231; 67.1 ± 15.7 µM in the test on MCF-7 (Homo sapiens, MCF7, 72 h). Further, the “selectivity index (SI) MDA-MB231” value in the test on MDA-MB-231 came to 1.29. The “selectivity index (SI) MCF-7” value in the test with MCF-7 amounted to 1.32.

The record behind these values is publication PMC10341658, “In Silico Screening and Anticancer-Apoptotic Evaluation of Newly Synthesized Thienopyrimidine/Sulfonamide Hybrids” (International Journal of Molecular Sciences, 2023).
